The text below walks through data of patent US20050245399A1, “Pyrazole derivatives as herbicidal compositions containing them” (ISHIHARA SANGYO KAISHA, LTD., priority 2004, published 2005).

Each structure is given as a SMILES string.

The subject of one test is corn (Zea mays L.): ZEAMX. In words: Test Example 1 pre-emergence herbicidal activity, ZEAMX. As to conditions: Rate 63 g a.i./ha, visually observed 20th to 23rd day after application. Format: in vivo. An outline of the steps:
(§1)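 Compound was delivered by small sprayer to sown upland soil one day after sowing, before emergence, at 500 L/ha spray volume. Plant growth was assessed visually around 3 weeks later (days 20–23), 100% denoting complete kill.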
On to `COC(=O)Nc1c(OC)c(Cl)cc(F)c1-c1nn(C)c(OC(F)F)c1Cl` [Compound 1-62], for which the “Pre-emergence Herbicidal Activity ZEAMX (growth controlling degree)” value is listed as 30%.

A further test relates to soybean (Glycine max Merr.), GLXMA. In words: Test Example 2 post-emergence (foliage treatment) herbicidal activity, GLXMA. The class given is in vivo. The settings on record: 63 g a.i./ha. An outline of the steps:
(§2)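 Each species was evaluated for growth suppression by eye, 0% matching untreated and 100% meaning death, some 20 to 23 days after a single post-emergence foliar treatment applied in 500 L/ha of water carrying 0.1% (v/v) agricultural spreader.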
For `COC(=O)Nc1c(OC)c(Cl)cc(F)c1-c1nn(C)c(OC(F)F)c1Cl` [Compound 1-62], the “growth controlling degree, GLXMA” value is 80%.

A further test has as its system redroot pigweed (Amaranthus retroflexus L.): AMARE. Nature of the test: Test Example 1 pre-emergence herbicidal activity, AMARE. The class given is in vivo. As to conditions: Rate 63 g a.i./ha, visually observed 20th to 23rd day after application. An outline of the steps:
as §1
As to `COC(=O)Nc1c(OC)c(Cl)cc(F)c1-c1nn(C)c(OC(F)F)c1Cl` [Compound 1-62], the “Pre-emergence Herbicidal Activity AMARE (growth controlling degree)” value is given as 100%.

Another test relates to japanese ribbon wapato (Sagittaria pygmaea: SA GPY). Nature of the test: Test Example 3 water application herbicidal activity (paddy), SAGPY. As to conditions: 63 g a.i./ha, water application under submerged condition, tubers planted, visually observed 14th day after application; 0 = untreated control, 100 = complete kill. Format: in vivo. An outline of the steps: (§3)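 Compound, as diluted wettable powder or emulsifiable concentrate, was pipetted into flood water at a set active-ingredient dose. Weeds were treated at 0.5-leaf stage after sowing or tuber planting; 2-leaf rice 4 days post-transplant. Control scored visually, 0 untreated to 100 complete kill, weeds day 14, rice day 21.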
With `COC(=O)Nc1c(OC)c(Cl)cc(F)c1-c1nn(C)c(OC(F)F)c1Cl` [Compound 1-62], the “growth controlling degrees (%) SAGPY” value turned out to be 100%.

A further test concerns velvetleaf (Abutilon theophrasti): ABUTH. Nature of the test: Test Example 1 pre-emergence herbicidal activity, ABUTH. Format: in vivo. As to conditions: Rate 63 g a.i./ha, visually observed 20th to 23rd day after application. An outline of the steps: as §1
As to `COC(=O)Nc1c(OC)c(Cl)cc(F)c1-c1nn(C)c(OC(F)F)c1Cl` [Compound 1-62], the “Pre-emergence Herbicidal Activity ABUTH (growth controlling degree)” value is reported as 100%.

A further test relates to barnyardgrass (Echinochloa crus-galli L.): ECHCG. Nature of the test: Test Example 1 pre-emergence herbicidal activity, ECHCG. The class given is in vivo. As to conditions: Rate 63 g a.i./ha, visually observed 20th to 23rd day after application. An outline of the steps: as §1
For the compound `COC(=O)Nc1c(OC)c(Cl)cc(F)c1-c1nn(C)c(OC(F)F)c1Cl` [Compound 1-62], the “Pre-emergence Herbicidal Activity ECHCG (growth controlling degree)” value came to 100%.

The subject of a further test is green foxtail (Setaria viridis L.): SETVI. In words: Test Example 1 pre-emergence herbicidal activity, SETVI. Format: in vivo. The settings on record: Rate 63 g a.i./ha, visually observed 20th to 23rd day after application. An outline of the steps: as §1
For the compound `COC(=O)Nc1c(OC)c(Cl)cc(F)c1-c1nn(C)c(OC(F)F)c1Cl` [Compound 1-62], the “Pre-emergence Herbicidal Activity SETVI (growth controlling degree)” value is reported as 100%.

For a further test, the system named is corn (Zea mays L.), ZEAMX. In words: Test Example 2 post-emergence (foliage treatment) herbicidal activity, ZEAMX. The settings on record: 63 g a.i./ha. Format: in vivo. An outline of the steps:
as §2
For `COC(=O)Nc1c(OC)c(Cl)cc(F)c1-c1nn(C)c(OC(F)F)c1Cl` [Compound 1-62], the “growth controlling degree, ZEAMX” value amounted to 80%.

A further test concerns prickly sida (Sida spinosa L.): SEDSP. In words: Test Example 1 pre-emergence herbicidal activity, SIDSP. The class given is in vivo. The settings on record: Rate 63 g a.i./ha, visually observed 20th to 23rd day after application. An outline of the steps:
as §1
Consider `COC(=O)Nc1c(OC)c(Cl)cc(F)c1-c1nn(C)c(OC(F)F)c1Cl` [Compound 1-62], for which the “Pre-emergence Herbicidal Activity SIDSP (growth controlling degree)” value came to 100%.

In a further test the test system is green foxtail (Setaria viridis L.), SETVI. In words: Test Example 2 post-emergence (foliage treatment) herbicidal activity, SETVI. Format: in vivo. The settings on record: 63 g a.i./ha. An outline of the steps: as §2
On to `COC(=O)Nc1c(OC)c(Cl)cc(F)c1-c1nn(C)c(OC(F)F)c1Cl` [Compound 1-62], for which the “growth controlling degree, SETVI” value amounted to 100%.

For another test, the system named is prickly sida (Sida spinosa L.), SIDSP. Nature of the test: Test Example 2 post-emergence (foliage treatment) herbicidal activity, SIDSP. The settings on record: 63 g a.i./ha. Format: in vivo. An outline of the steps: as §2
With `COC(=O)Nc1c(OC)c(Cl)cc(F)c1-c1nn(C)c(OC(F)F)c1Cl` [Compound 1-62], the “growth controlling degree, SIDSP” value turned out to be 100%.

The next test concerns wheat (Triticum aestivum L.): TRZAX. In words: Test Example 1 pre-emergence herbicidal activity, TRZAX. The class given is in vivo. The settings on record: Rate 63 g a.i./ha, visually observed 20th to 23rd day after application. An outline of the steps:
as §1
As for `COC(=O)Nc1c(OC)c(Cl)cc(F)c1-c1nn(C)c(OC(F)F)c1Cl` [Compound 1-62], the “Pre-emergence Herbicidal Activity TRZAX (growth controlling degree)” value came to 60%.

The subject of a further test is barnyardgrass (Echinochloa crus-galli L.), ECHCG. Nature of the test: Test Example 2 post-emergence (foliage treatment) herbicidal activity, ECHCG. The settings on record: 63 g a.i./ha. The class given is in vivo. An outline of the steps:
(§4)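 Greenhouse pot test with upland field soil. Treatment: foliage spray, active ingredient at a predetermined amount, 500 L/ha, spreader 0.1% (v/v); leaf stage 0.1-1.5 (AMARE), 1.1-2.1 (ECHCG), 1.0-2.0 (DIGSA), 1.0-2 (ORYSA). Endpoint: visual % control, d20-23.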
With `COC(=O)Nc1c(OC)c(Cl)cc(F)c1-c1nn(C)c(OC(F)F)c1Cl` [Compound 1-62], the “growth controlling degree, ECHCO” value amounted to 100%.

The next test relates to rice (Oryza sativa L.), ORYSA. Nature of the test: Test Example 2 post-emergence (foliage treatment) herbicidal activity, ORYSA. As to conditions: 63 g a.i./ha. Format: in vivo. An outline of the steps:
as §4
Consider `COC(=O)Nc1c(OC)c(Cl)cc(F)c1-c1nn(C)c(OC(F)F)c1Cl` [Compound 1-62], for which the “growth controlling degree, ORYSA” value is recorded as 80%.

For the next test, the system named is velvetleaf (Abutilon theophrasti), ABUTH. In words: Test Example 2 post-emergence (foliage treatment) herbicidal activity, ABUTH. The settings on record: 63 g a.i./ha. Format: in vivo. An outline of the steps:
as §2
For `COC(=O)Nc1c(OC)c(Cl)cc(F)c1-c1nn(C)c(OC(F)F)c1Cl` [Compound 1-62], the “growth controlling degree, ABUTH” value worked out at 100%.

The test system of a further test is barnyardgrass (Echinochiloa oryzicola: ECHOR). Nature of the test: Test Example 3 water application herbicidal activity (paddy), ECHOR. The class given is in vivo. The settings on record: 63 g a.i./ha, water application under submerged condition at 0.5 leaf stage, visually observed 14th day after application; 0 = untreated control, 100 = complete kill. An outline of the steps: as §3
As for `COC(=O)Nc1c(OC)c(Cl)cc(F)c1-c1nn(C)c(OC(F)F)c1Cl` [Compound 1-62], the “growth controlling degrees (%) ECHOR” value was determined as 100%.

In the next test the test system is crabgrass (Digitaria sanguinalis L.): DIGSA. Nature of the test: Test Example 1 pre-emergence herbicidal activity, DIGSA. The settings on record: Rate 63 g a.i./ha, visually observed 20th to 23rd day after application. Format: in vivo. An outline of the steps:
as §1
With `COC(=O)Nc1c(OC)c(Cl)cc(F)c1-c1nn(C)c(OC(F)F)c1Cl` [Compound 1-62], the “Pre-emergence Herbicidal Activity DIGSP (growth controlling degree)” value is 100%.

A further test relates to japanese bulrush (Scirpus juncoides: SCPJO). In words: Test Example 3 water application herbicidal activity (paddy), SCPJO. The settings on record: 63 g a.i./ha, water application under submerged condition at 0.5 leaf stage, visually observed 14th day after application; 0 = untreated control, 100 = complete kill. The class given is in vivo. An outline of the steps:
as §3
Take `COC(=O)Nc1c(OC)c(Cl)cc(F)c1-c1nn(C)c(OC(F)F)c1Cl` [Compound 1-62]: the “growth controlling degrees (%) SCPJO” value came out at 100%.

For a further test, the system named is soybean (Glycine max Merr.): GLXMA. Nature of the test: Test Example 1 pre-emergence herbicidal activity, GLXMA. Format: in vivo. As to conditions: Rate 63 g a.i./ha, visually observed 20th to 23rd day after application. An outline of the steps:
as §1
In the case of `COC(=O)Nc1c(OC)c(Cl)cc(F)c1-c1nn(C)c(OC(F)F)c1Cl` [Compound 1-62], the “Pre-emergence Herbicidal Activity GLXMA (growth controlling degree)” value was found to be 20%.

A further test relates to redroot pigweed (Amaranthus retroflexus L.), AMARE. In words: Test Example 2 post-emergence (foliage treatment) herbicidal activity, AMARE. The class given is in vivo. The settings on record: 63 g a.i./ha. An outline of the steps: as §4
In the case of `COC(=O)Nc1c(OC)c(Cl)cc(F)c1-c1nn(C)c(OC(F)F)c1Cl` [Compound 1-62], the “growth controlling degree, AMARE” value is 100%.

A further test concerns wheat (Triticum aestivum L.), TRZAX. Nature of the test: Test Example 2 post-emergence (foliage treatment) herbicidal activity, TRZAX. The class given is in vivo. The settings on record: 63 g a.i./ha. An outline of the steps: as §2
Regarding `COC(=O)Nc1c(OC)c(Cl)cc(F)c1-c1nn(C)c(OC(F)F)c1Cl` [Compound 1-62], the “growth controlling degree, TRZAX” value amounted to 30%.

The subject of a further test is rice (Oryza sativa L.): ORYSA. Nature of the test: Test Example 1 pre-emergence herbicidal activity, ORYSA. The class given is in vivo. The settings on record: Rate 63 g a.i./ha, visually observed 20th to 23rd day after application. An outline of the steps:
as §1
For `COC(=O)Nc1c(OC)c(Cl)cc(F)c1-c1nn(C)c(OC(F)F)c1Cl` [Compound 1-62], the “Pre-emergence Herbicidal Activity ORYSA (growth controlling degree)” value turned out to be 80%.

The subject of a further test is rice (Oryza sativa L.: ORYSA). Nature of the test: Test Example 3 water application herbicidal activity (paddy), transplanted rice ORYSA. As to conditions: 63 g a.i./ha, water application 4th day after transplantation of 2 leaf stage rice, visually observed 21st day after application; 0 = untreated control, 100 = complete kill. Format: in vivo. An outline of the steps: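 Submerged application in flooded paddy soil (3–4 cm water); weeds treated at 0.5-leaf stage, transplanted rice 4 d after transplanting. Scored visually as % growth control: weeds at 14 d, rice at 21 d.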
For `COC(=O)Nc1c(OC)c(Cl)cc(F)c1-c1nn(C)c(OC(F)F)c1Cl` [Compound 1-62], the “growth controlling degrees (%) ORYSA” value was found to be 70%.

For a further test, the system named is crabgrass (Digitaria sanguinalis L.), DIGSA. In words: Test Example 2 post-emergence (foliage treatment) herbicidal activity, DIGSA. The class given is in vivo. As to conditions: 63 g a.i./ha. An outline of the steps:
as §4
Regarding `COC(=O)Nc1c(OC)c(Cl)cc(F)c1-c1nn(C)c(OC(F)F)c1Cl` [Compound 1-62], the “growth controlling degree, DIGSP” value was determined as 100%.
